Measured values from patent publication US8759400B2, “Histone deacetylase inhibitors for enhancing activity of antifungal agents” (MethylGene Inc., priority 2005, dated 2014).
Read-outs that look alike come from different tables or passages of the source.

Experiments:
C. albicans (ATCC 90028) = experiment: MIC80 and checkerboard synergy with antifungal agents; assay type: cell-based, Candida albicans; settings: for Conc. Cpd 4 for 4-fold decrease: C. albicans; for Cpd 4 Conc for 4-fold synergy: C. albicans (90028)
HDAC [1] = experiment: HDAC inhibitory activity in fungal protoplasts (Fluor-de-Lys); assay type: cell-based, Candida albicans; settings: C. albicans protoplasts
Method: (§1) Protoplasts of C. albicans and C. glabrata are prepared by the […] method of Franzusoff et al.

HDAC [2] = experiment: as above; assay type: cell-based, Candida glabrata; settings: C. glabrata protoplasts
Method: as §1

C. tropicalis (750) = experiment: MIC and checkerboard synergy with azoles; assay type: cell-based, Candida tropicalis
Method: (§2) For susceptibility studies, overnight cultures of both Candida species are diluted 1:100 in YEPD medium, grown for 4 h at 30° C., counted in a hemocytometer, then diluted to a concentration of 5×10^3 cells/ml. […] Synergy, determined by the checkerboard method, is defined as a decrease in MIC of antifungal agent that is more than additive of the MIC of the histone deacetylase inhibitor and the antifungal agent alone.

C. krusei (14243) = experiment: MIC and checkerboard synergy with azoles; assay type: cell-based, Candida krusei
Method: as §2

C. glabrata [3] = experiment: Post-antifungal effect (PAFE); assay type: cell-based
Method: The post-antifungal effect (PAFE) is the time needed to achieve one log10 of cell growth after drug removal. One-two colonies are resuspended in 5 ml YPD. […] Cells are incubated at 30° C. overnight. In the morning, the optical density at 600 nm is read. Cells at A600 the closest but not surpassing 0.3 (early log-phase cells) are picked for further treatments as follows: […] Counts of CFU/ml are performed at time zero, before and after diluting the cells and at predetermined time points in order to determine the PAFE and the cidal potential of each drug combination (FIGS. 5-10).

C. glabrata (ATCC 90030) = assay type: cell-based
C. glabrata [4] = experiment: Clinical isolates, CLSI M27-A2 broth microdilution and checkerboard; assay type: cell-based
A. niger = experiment: Clinical isolates, CLSI M38-A broth microdilution and checkerboard; assay type: cell-based

O=C(Cc1ccc(CCCCc2ccccc2)cc1)NO [Cpd 4]
Conc. Cpd 4 for 4-fold decrease (C. albicans (ATCC 90028); 4-fold decrease of nikkomycin MIC): 1.563 µg/mL | Conc. Cpd 4 for 4-fold decrease (C. albicans (ATCC 90028); 4-fold decrease of terbinafine MIC): 0.78 µg/mL | MIC (C. albicans (ATCC 90028); Candida albicans, ATCC90028, compound alone, C. albicans (ATCC 90028), read-out: MIC80): 0.8 µg/mL | Cpd 4 Conc for 4-fold synergy (C. albicans (ATCC 90028); with itraconazole): 0.024 µg/mL | Cpd 4 Conc for 4-fold synergy (C. albicans (ATCC 90028); with voriconazole): 0.39 µg/mL | HDAC inhibition IC50 (HDAC [1]): >20 µg/mL | HDAC inhibition IC50 (HDAC [2]): >20 (20%) μg/ml | HDAC inhibition, per cent in parentheses beside IC50 >20 (HDAC [2]; concentration not given): >20 (20%) | MIC (C. tropicalis (750); Candida tropicalis, read-out: Cpd 4 MIC): > 50 µg/mL | Cpd 4 Conc for 4-fold synergy (C. tropicalis (750); with itraconazole): 0.2 µg/mL | Cpd 4 Conc for 4-fold synergy (C. tropicalis (750); with ketoconazole): 0.2 µg/mL | Cpd 4 Conc for 4-fold synergy (C. tropicalis (750); with voriconazole): 0.39 µg/mL | MIC (C. krusei (14243); Pichia kudriavzevii, read-out: Cpd 4 MIC): 3.1 to 6.3 µg/mL | Cpd 4 Conc for 4-fold synergy (C. krusei (14243); with itraconazole): 0.39 µg/mL | Cpd 4 Conc for 4-fold synergy (C. krusei (14243); with ketoconazole): 0.39 µg/mL | Cpd 4 Conc for 4-fold synergy (C. krusei (14243); with voriconazole): 0.39 µg/mL | PAFE (C. glabrata [3]; Compound 4 combined with voriconazole, FIGS. 5 and 6C): ~1 h | PAFE (C. glabrata [3]; itraconazole combined with Compound 4, FIG. 7): 0.5 h | frequency of resistant mutants (C. glabrata (ATCC 90030); 4× synergistic MIC80 concentrations of Compound 4 and fluconazole): 2×10^−7 | frequency of resistant mutants (C. glabrata (ATCC 90030); 4× the synergistic MIC80 of Compound 4 and itraconazole): 1×10^−7 | resistant mutants detected (C. glabrata (ATCC 90030); Compound 4 and itraconazole at 2×MIC): no mutants were detected | Conc. Cpd 4 for 4-fold decrease (C. glabrata [4]; 4-fold reduction of FLU MIC, C. glabrata clinical isolates): 0.5 µg/mL | Conc. Cpd 4 for 4-fold decrease (C. glabrata [4]; 4-fold reduction of VOR MIC, C. glabrata clinical isolates): 0.5 µg/mL | FLU/Cpd 4 FIC (C. glabrata [4]; Cpd 4 with fluconazole, C. glabrata clinical isolates): 0.5 | VOR/Cpd 4 FIC interpretation (C. glabrata [4]; Cpd 4 with voriconazole, C. glabrata clinical isolates): (S) (S = synergy) | minimum Compound 4 concentration at which Compound 4 alone inhibited growth (number in brackets) (C. glabrata [4]; FLU checkerboard, C. glabrata clinical isolates): 0.5 µg/mL | minimum Compound 4 concentration at which Compound 4 alone inhibited growth (number in brackets) (C. glabrata [4]; VOR checkerboard, C. glabrata clinical isolates): 0.5 µg/mL | Compound 4 concentration for 4-fold reduction in azole MIC (C. glabrata [4]; all 14 C. glabrata clinical isolates (9 FLU-R)): < 0.5 µg/mL | ITR/Cpd 4 FIC (A. niger; Cpd 4 with itraconazole): 0.5 | VOR/Cpd 4 FIC (A. niger; Cpd 4 with voriconazole): 0.5 | minimum Compound 4 concentration at which Compound 4 alone inhibited growth (number in brackets) (A. niger; ITR checkerboard): 4.0 µg/mL | minimum Compound 4 concentration at which Compound 4 alone inhibited growth (number in brackets) (A. niger; VOR checkerboard): 2.0 µg/mL
